Laboratory results from patent US8946439B2, “Amide compounds, compositions and uses thereof” (Evotec AG, priority 2008, dated 2015).
pIC50: −log10 of the molar value. Like-named read-outs stand apart in the source and are kept apart here.

Tests used:
hP2X2/3H = target: T1, hP2X2/3H (Homo sapiens, UniProt P56373+Q9UBL9); assay: Calcium uptake assay (P2X antagonist assay), P2X2/3 heteromer; assay type: cell-based; details: for pIC50: read-out: IC50 hP2X2/3H; for IC50: read-out: IC50 hP2X2/3H (nM), Ca Influx
T1 construct: expressed in transfected cells; host or cells: e.g. HEK293 or 1321N1
T1 sequence (Q9UBL9 1-471): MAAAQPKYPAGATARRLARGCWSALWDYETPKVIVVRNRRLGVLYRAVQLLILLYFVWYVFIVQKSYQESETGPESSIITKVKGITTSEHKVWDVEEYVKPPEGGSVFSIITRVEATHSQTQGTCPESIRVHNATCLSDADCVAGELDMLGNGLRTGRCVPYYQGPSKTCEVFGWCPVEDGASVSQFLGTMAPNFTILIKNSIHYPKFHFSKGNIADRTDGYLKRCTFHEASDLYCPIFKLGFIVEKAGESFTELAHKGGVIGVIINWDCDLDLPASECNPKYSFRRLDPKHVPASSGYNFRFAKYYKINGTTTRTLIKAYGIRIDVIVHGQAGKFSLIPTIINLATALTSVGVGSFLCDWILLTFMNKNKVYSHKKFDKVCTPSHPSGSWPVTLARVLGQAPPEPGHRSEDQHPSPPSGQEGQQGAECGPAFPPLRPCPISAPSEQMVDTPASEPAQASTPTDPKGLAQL
T1 sequence (P56373 1-397): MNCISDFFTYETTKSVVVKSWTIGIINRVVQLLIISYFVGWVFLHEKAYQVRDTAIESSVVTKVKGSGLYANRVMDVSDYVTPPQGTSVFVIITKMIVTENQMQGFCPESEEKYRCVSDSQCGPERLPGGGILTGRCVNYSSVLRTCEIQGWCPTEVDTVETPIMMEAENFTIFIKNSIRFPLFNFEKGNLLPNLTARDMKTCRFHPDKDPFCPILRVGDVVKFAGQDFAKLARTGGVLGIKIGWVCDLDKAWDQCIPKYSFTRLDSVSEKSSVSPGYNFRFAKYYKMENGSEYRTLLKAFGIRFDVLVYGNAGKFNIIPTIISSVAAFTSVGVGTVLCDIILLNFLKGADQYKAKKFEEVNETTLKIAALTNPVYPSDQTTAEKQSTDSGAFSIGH
Method in brief: (§1)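 Stably or transiently transfected HEK293 or 1321N1 cells; the heteromer is made by adding P2X3 to a P2X2-stable line, with heteromer function isolated pharmacologically. The peak-minus-baseline FLIPR calcium signal gives % inhibition and a 4-parameter-logistic IC50.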

hP2X3 = target: T2, hP2X3 (Homo sapiens, UniProt P56373); assay: Calcium uptake assay (P2X antagonist assay), P2X3 homomer; assay type: cell-based; details: for pIC50: read-out: IC50 hP2X3; for IC50: read-out: IC50 hP2X3 (nM), Ca Influx
T2 construct: expressed in transfected cells; host or cells: e.g. HEK293 or 1321N1
T2 sequence (P56373 1-397): T1 sequence (P56373 1-397)
Method in brief: as §1

[1] = Ca influx (calcium uptake assay), hP2X2/3H
[2] = Ca influx (calcium uptake assay), hP2X3
[3] = Ca influx, calcium uptake assay

| Structure (SMILES) | pIC50 (hP2X2/3H; [1]) | pIC50 (hP2X3; [2]) | IC50 (hP2X2/3H; calcium uptake assay, hP2X2/3H) | IC50 (hP2X3; calcium uptake assay, hP2X3) | also measured |
| --- | --- | --- | --- | --- | --- |
| Cc1ccc(-c2cc(OCC3CCOC3)cc(C(=O)N[C@H](C)c3ccc(C)nc3)c2)cc1 (stereo partly shown) [Compound 309] | > 7.00 | 6.30 to 7.00 | – | – | – |
| Cc1ccc(-c2cc(C(=O)NCc3ccc(C)nc3)cc(C(=O)N(C)CC(F)(F)F)c2)cc1 [Compound 168, N3,4′-Dimethyl-N5-((6-methylpyridin-3-yl)methyl)-N3-(2,2,2-trifluoroethyl)biphenyl-3,5-dicarboxamide] | – | – | < 100 nM | < 100 nM | – |
| Cc1ccc(-c2cc(C(=O)NCc3ccc(Cl)c(-n4cnnc4)c3)cc(C(=O)N3CCCC3)c2)cc1 [Compound 102] | – | – | < 100 nM | < 100 nM | – |
| Cc1ccc(-c2cc(C(=O)N[C@H](C)c3cnc(C)nc3)cc(S(C)(=O)=O)c2)nc1 [Compound 322] | 6.30 to 7.00 | > 7.00 | – | – | – |
| Cc1ncc(CNC(=O)c2cc(C(=O)N3CCCC3)cc(-c3ccc(C(F)(F)F)cc3)c2)cn1 [Compound 54] | – | – | > 1000 nM | > 1000 nM | – |
| Cc1ccc(-c2cc(Oc3nccs3)cc(C(=O)N[C@H](C)c3cnc(C)nc3)c2)cc1 [Compound 236, (R)-4′-Methyl-N-(1-(2-methylpyrimidin-5-yl)ethyl)-5-(thiazol-2-yloxy)biphenyl-3-carboxamide] | > 7.00 | > 7.00 | – | – | – |
| Cc1ccc(-c2cc(C(=O)N[C@H](CO)c3ccc(C(F)(F)F)nc3)cc(C(=O)N3CCCC3)c2)cc1 [Compound 92] | – | – | < 100 nM | < 100 nM | – |
| COC1CCN(CC(O)c2cc(C(=O)NCc3ccc(C)nc3)cc(-c3ccc(C)cc3)c2)CC1 (stereo not shown) [Compound 389] | 6.30 to 7.00 | > 7.00 | – | – | – |
| Cc1ccc(-c2cc(C(=O)NC(C)c3csc(C)n3)cc(C(=O)N3CCCC3)c2)nc1 (stereo not shown) [Compound 175] | – | – | 100 to 500 nM | < 100 nM | – |
| Cc1ccc(-c2cc(C(=O)NCc3ccc(C)nc3)cc(C(=O)N(C)C3CCNCC3)c2)cc1 [Compound 167] | – | – | > 1000 nM | 100 to 500 nM | – |
| Cc1ccc(-c2cc(S(=O)(=O)N3CCCC3)cc(C(=O)N[C@H](C)c3cnc(C)nc3)c2C)cc1 [Compound 65, (R)-2,4′-Dimethyl-N-(1-(2-methylpyrimidin-5-yl)ethyl)-5-(pyrrolidin-1-ylsulfonyl)biphenyl-3-carboxamide] | – | – | > 1000 nM | 100 to 500 nM | – |
| Cc1ccc(-c2cc(C(=O)NCc3ccc(C)[n+]([O-])c3)cc(C(=O)N3CCCC3)c2)cc1 [Compound 224, 2-Methyl-5-((4′-methyl-5-(pyrrolidine-1-carbonyl)biphenyl-3-ylcarboxamido)methyl)pyridine 1-oxide] | > 7.00 | > 7.00 | – | – | – |
| Cc1ccc(-c2cc(C(=O)NCc3ccc(C)nc3)cc(C(=O)N(C)c3ccccn3)c2)cc1 [Compound 164] | – | – | 100 to 500 nM | < 100 nM | – |
| Cc1ccc(-c2cc(C(=O)NC(c3ccc(C)nc3)C(F)(F)F)cc(C(=O)N3CCCC3)c2)cc1 (stereo not shown) [Compound 214] | < 6.00 | < 6.00 | – | – | – |
| Cc1ccc(-c2cc(C(=O)N[C@H](C)c3cnc(C)nc3)cc(C(O)CO)c2)c(C#N)c1 (stereo partly shown) [Compound 360] | 6.30 to 7.00 | > 7.00 | – | – | – |
| CCCS(=O)(=O)c1cc(C(=O)NCc2ccc(C(F)(F)F)nc2)cc(-c2ccc(C)cc2)c1 [Compound 44] | – | – | 100 to 500 nM | 100 to 500 nM | – |
| Cc1ccc(-c2cc(Oc3nccs3)cc(C(=O)N[C@H](C)c3ccc(C)nc3)c2)c(C#N)c1 [Compound 255] | > 7.00 | > 7.00 | – | – | – |
| Cc1ccc(-c2cc(C(=O)NCc3cnc(C)nc3)cc(C(=O)N3CCCC3)c2)c(C#N)c1 [Compound 39, 2′-Cyano-4′-methyl-N-((2-methylpyrimidin-5-yl)methyl)-5-(pyrrolidine-1-carbonyl)biphenyl-3-carboxamide] | – | – | < 100 nM | < 100 nM | – |
| Cc1ccc(-c2cc(C(=O)N[C@H](C)c3cnc(C)nc3)cc(C(C)(C)O)c2)cc1 [Compound 398] | – | – | – | – | pIC50 (hP2X2/3H; [3]): > 7.00; pIC50 (hP2X3; [3]): > 7.00 |

| Structure (SMILES) | pIC50 (hP2X2/3H; [1]) | pIC50 (hP2X3; [2]) | IC50 (hP2X2/3H; calcium uptake assay, hP2X2/3H) | IC50 (hP2X3; calcium uptake assay, hP2X3) | also measured |
| --- | --- | --- | --- | --- | --- |
| Cc1ccc(-c2cc(C(=O)NC(CCO)c3ccc(C(F)(F)F)nc3)cc(C(=O)N3CCCC3)c2)cc1 (stereo not shown) [Compound 83, N-(3-Hydroxy-1-(6-(trifluoromethyl)pyridin-3-yl)propyl)-4′-methyl-5-(pyrrolidine-1-carbonyl)biphenyl-3-carboxamide] | – | – | 100 to 500 nM | 100 to 500 nM | – |
| Cc1ccc(-c2cc(C(=O)NCc3ccc(C(F)(F)F)c(F)c3)cc(C(=O)N3CC[C@@H](O)C3)c2)nc1 [Compound 151] | – | – | 100 to 500 nM | < 100 nM | – |
| Cc1ccc(-c2cc(C(=O)N[C@H](C)c3ccc(C)nc3)cc(S(=O)(=O)C3CCCC3)c2)cc1 [Compound 218] | > 7.00 | > 7.00 | – | – | – |
| Cc1ccc(-c2cc(Oc3nc4ccccc4s3)cc(C(=O)N[C@H](C)c3ccc(C)nc3)c2)c(C#N)c1 [Compound 392] | 6.30 to 7.00 | 6.30 to 7.00 | – | – | – |
| Cc1ccc(-c2cc(C(=O)NCc3ccc(C)nc3)cc(C(=O)N3CCNC(C)C3)c2)cc1 (stereo not shown) [Compound 126] | – | – | 100 to 500 nM | < 100 nM | – |
| Cc1ccc(-c2cc(C(=O)N[C@H](C)c3ccc(C)nc3)cc(C(=O)N3CCCC3)c2)nc1 [Compound 173] | – | – | < 100 nM | < 100 nM | – |
| Cc1ccc(-c2cc(C(=O)NCc3ccc(C)nc3)cc(C(O)CN3CC4CN(C)CC4C3)c2)cc1 (stereo not shown) [Compound 399] | – | – | – | – | pIC50 (hP2X2/3H; [3]): 6.00 to 6.30; pIC50 (hP2X3; [3]): 6.30 to 7.00 |
| CCN(CC)CC(O)c1cc(C(=O)N[C@H](C)c2ccc(C)nc2)cc(-c2ccc(C)cc2C#N)c1 (stereo partly shown) [Compound 343] | 6.30 to 7.00 | > 7.00 | – | – | – |
| Cc1ccc(-c2cc(OC3COCC3O)cc(C(=O)N[C@H](C)c3cnc(C)nc3)c2)cc1 (stereo partly shown) [Compound 362] | > 7.00 | > 7.00 | – | – | – |
| Cc1ccc(-c2cc(C(=O)N[C@H](C)c3ccc(C(F)(F)F)nc3)cc(C(=O)N3CC(O)C3)c2)cc1 [Compound 85] | – | – | < 100 nM | < 100 nM | – |
| COC1CCN(C(=O)c2cc(C(=O)NCc3cnc(C)nc3)cc(-c3ccc(C)cc3)c2)C1 (stereo not shown) [Compound 32] | – | – | < 100 nM | < 100 nM | – |
| Cc1ccc(-c2cc(C(=O)NCc3ccc(Cl)nc3)cc(C(=O)N(C)CC(C)C)c2)cc1 [Compound 9, N3-((6-Chloropyridin-3-yl)methyl)-N5-isobutyl-N5,4′-dimethylbiphenyl-3,5-dicarboxamide] | – | – | < 100 nM | < 100 nM | – |
| Cc1ccc(-c2cc(C(=O)N[C@H](CO)c3ccc(C(F)F)nc3)cc(S(C)(=O)=O)c2)cc1 [Compound 207] | > 7.00 | > 7.00 | – | – | – |
| Cc1ccc(-c2cc(C(=O)NCc3ccc(C)nc3)cc(C(=O)N3CC[C@@H](O)C3)c2)cc1 [Compound 94, (R)-5-(3-Hydroxypyrrolidine-1-carbonyl)-4′-methyl-N-((6-methylpyridin-3-yl)methyl)biphenyl-3-carboxamide] | – | – | < 100 nM | < 100 nM | – |
| Cc1ccc(-c2cc(Oc3ccccn3)cc(C(=O)N[C@H](C)c3cnc(C)nc3)c2)nc1 [Compound 270] | > 7.00 | > 7.00 | – | – | – |
| Cc1ccc(-c2cc(OCC3CNCCO3)cc(C(=O)N[C@H](C)c3ccc(C)nc3)c2)nc1 (stereo partly shown) [Compound 349] | 6.30 to 7.00 | > 7.00 | – | – | – |
| CCCS(=O)(=O)c1cc(C(=O)N[C@@H](C)CO)cc(-c2ccc(C)cc2)c1 [Compound 42] | – | – | > 1000 nM | < 100 nM | – |
| Cc1ccc(-c2cc(C(=O)NCc3ccc(C)nc3)cc(S(=O)(=O)CC(C)C)c2)cc1 [Compound 183] | – | – | < 100 nM | < 100 nM | – |
| COCCOc1cc(C(=O)N[C@H](C)c2cnc(C)nc2)cc(-c2ccc(C)cn2)c1 [Compound 266] | 6.30 to 7.00 | > 7.00 | – | – | – |
